Source: US20060210479A1 (Dow Global Technologies Inc., priority 2004, published 2006)
Entries after “also recorded” stand apart in the source; their conditions may differ. Marks after values point to notes of the source that are not given here.

Experiments:
Caco-2 cells [1] = assay: Adsorption of chelate compounds to cells (HPLC and mass spectrometry); type: cell-based, human; conditions: for Adsorption Caco-2: 50 µM chelate compound, 0, 30 and 90 minutes at 37 °C, % adsorbed relative to time zero
How it was run: (§1)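 Confluent cells were detached and treated with 50 µM chelate compound in 10 mM HEPES pH 7.4, 5 mM KCl, 150 mM NaCl, 0.7 mM NaH2PO4 for 0, 30 and 90 min at 37°C. After pelleting, the supernatant solution was analysed by HPLC and mass spectrometry.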

HEK293 cells [2] = assay: as above; type: cell-based, human; conditions: for Adsorption HEK293: 50 µM chelate compound, 0, 30 and 90 minutes at 37 °C, % adsorbed relative to time zero
How it was run: as §1

LNCaP cells [3] = assay: as above; type: cell-based, human; conditions: for Adsorption LNCaP: 50 µM chelate compound, 0, 30 and 90 minutes at 37 °C, % adsorbed relative to time zero
How it was run: as §1

HEK293 cells [4] = assay: Permeability: detection of chelate compounds in the cytoplasm; type: cell-based, human; parameters: key: Absence = 0; presence = +; conditions: 50 μM, 90 minutes at 37 °C
Method: (§2) Cell cultures. LNCaP cell line is a human prostate carcinoma. Cells were grown in RPMI 1640 Medium supplemented 10% FBS, 2 mM L-glutamine, glucose (2 g/L) augmented with gentamicin (50 μg/mL), penicillin/streptomycin (100 IU/mL/100 μg/mL) and amphotericin B (2.5 μg/mL). Caco-2 cell line is a human colorectal carcinoma. These cells were grown in Eagle's Minimum Essential Medium supplemented with 20% FBS, Earle's BSS, 2 mM L-glutamine, 1.0 mM sodium pyruvate, 0.1 mM nonessential amino acids augmented with gentamicin (50 μg/mL), penicillin/streptomycin (100 IU/mL/100 μg/mL), and amphotericin B (2.5 μg/mL). The human kidney transformed cells HEK293 were grown in Eagle's Minimum Essential Medium (EMEM) supplemented with 10% (v/v) heat-inactivated fetal bovine serum, sodium pyruvate, nonessential amino acids and antibiotics in a humidified 5% CO2 atmosphere at 37° C. Medium and supplements were purchased from Gibco BRL (Grand Island, N.Y.) and all cell lines were obtained from ATCC.
(§3) Detection of chelant compounds for the determination of permeability. Cells were grown to confluence in T-150 flasks (about 2×10^7 cells). Before treating with chelate compounds, cells were rinsed twice with warm 10 mM HEPES (Gibco BRL, Grand Island N.Y.), removed from the flask, and transferred to a 50-mL conical tube and centrifuged (400×g) for 5 minutes. The resulting cells were treated with individual chelate compounds with 50 μM of chelate compounds in 10 mM HEPES, pH 7.4, 5 mM KCl, 150 mM NaCl, 0.7 mM NaH2PO4 for 90 minutes at 37° C. After treatment, cells were pelleted by centrifugation, the cytoplasm was extracted by Mem-PER Eukaryotic Membrane Protein Extraction Reagent Kit as described by manufacturers (Pierce biotechnology, Rockford, Ill.) and the resulting solution was analyzed by a combination of HPLC and mass spectrometry (Table 8).

Caco-2 cells [5] = assay: as above; type: cell-based, human; parameters: key to Permeability Caco-2: Absence = 0; presence = +; conditions: for Permeability Caco-2: 50 μM, 90 minutes at 37 °C, detection in the cytoplasm; for detection within the cytoplasm: carcinoma cell line Caco-2
Method: as §2, §3

LNCaP cells [6] = assay: as above; type: cell-based, human; parameters: key to Permeability LNCaP: Absence = 0; presence = +; conditions: for Permeability LNCaP: 50 μM, 90 minutes at 37 °C, detection in the cytoplasm; for detection within the cytoplasm: carcinoma cell line LNCaP
Method: as §2, §3

Amphiphysin I = biological target: T1, Amphiphysin I (Homo sapiens, UniProt P49418); assay: Elution and identification of target-chelate compound associations; type: binding
T1 construct: Caco-2 and LNCaP cell lines were lysed by sonication or by lysis in hypotonic buffer; endogenous in cells; host or cells: Caco-2 and LNCaP
Method: (§4) Identification of novel target-chelate compound associations—Caco-2 and LNCaP cell lines were lysed by sonication or by lysis in hypotonic buffer. Soluble proteins were enriched and captured on an affinity support column. […] Proteins were eluted by adding different chelate compounds that compete for the bound ligand or change the steric structure of a given protein(s). Eluted samples were analyzed by high resolution SDS-PAGE. The protein-chelate compound associations were further analyzed to identify the different proteins by excising the corresponding protein bands from the gel, which was then treated with trypsin and purified. […]

BiP = biological target: T2, BiP (Homo sapiens, UniProt P11021); assay: as above; type: binding
T2 construct: Caco-2 and LNCaP cell lines were lysed by sonication or by lysis in hypotonic buffer; endogenous in cells; host or cells: Caco-2 and LNCaP
Method: as §4

[7] = Solubility of chelate compounds; conditions: <5% methanol, ethanol, or DMSO
Cytokeratin 8 = biological target: T3, Cytokeratin 8 (Homo sapiens, UniProt P05787); assay: Elution and identification of target-chelate compound associations; type: binding
T3 construct: Caco-2 and LNCaP cell lines were lysed by sonication or by lysis in hypotonic buffer; endogenous in cells; host or cells: Caco-2 and LNCaP
T3 sequence (P05787 1-483): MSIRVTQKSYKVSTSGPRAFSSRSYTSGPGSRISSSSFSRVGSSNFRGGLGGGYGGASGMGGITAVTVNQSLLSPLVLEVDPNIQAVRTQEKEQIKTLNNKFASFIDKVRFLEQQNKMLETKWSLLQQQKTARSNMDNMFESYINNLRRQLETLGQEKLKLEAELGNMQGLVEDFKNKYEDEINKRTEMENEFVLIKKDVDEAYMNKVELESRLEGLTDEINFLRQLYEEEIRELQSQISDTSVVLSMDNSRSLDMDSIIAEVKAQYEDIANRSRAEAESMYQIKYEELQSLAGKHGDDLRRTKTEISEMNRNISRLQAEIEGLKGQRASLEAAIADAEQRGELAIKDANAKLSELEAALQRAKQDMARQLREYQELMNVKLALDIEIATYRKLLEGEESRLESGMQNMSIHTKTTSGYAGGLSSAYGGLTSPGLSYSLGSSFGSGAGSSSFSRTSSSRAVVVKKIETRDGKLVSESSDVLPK
T3 sequence (P05783 2-430 partner limits assumed): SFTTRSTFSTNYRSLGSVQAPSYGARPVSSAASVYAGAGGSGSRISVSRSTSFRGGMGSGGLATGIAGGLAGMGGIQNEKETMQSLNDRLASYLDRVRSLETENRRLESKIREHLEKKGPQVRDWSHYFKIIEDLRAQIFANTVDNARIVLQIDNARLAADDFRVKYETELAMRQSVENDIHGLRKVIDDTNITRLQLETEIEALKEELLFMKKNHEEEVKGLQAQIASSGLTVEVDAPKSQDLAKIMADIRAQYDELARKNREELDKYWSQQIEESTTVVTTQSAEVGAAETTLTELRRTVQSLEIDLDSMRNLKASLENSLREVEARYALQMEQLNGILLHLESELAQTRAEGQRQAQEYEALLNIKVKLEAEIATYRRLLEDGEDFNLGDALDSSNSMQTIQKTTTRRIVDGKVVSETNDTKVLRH
Method: as §4

Keratin 18 = biological target: T4, Keratin 18 (Homo sapiens, UniProt P05783); assay: as above; type: binding
T4 construct: Caco-2 and LNCaP cell lines were lysed by sonication or by lysis in hypotonic buffer; endogenous in cells; host or cells: Caco-2 and LNCaP
T4 sequence (P05783 2-430 limits assumed): T3 sequence (P05783 2-430 partner limits assumed)
T4 sequence (P05787 1-483 partner): T3 sequence (P05787 1-483)
Method: as §4

T1 sequence (P49418 1-653 isoform P49418-2): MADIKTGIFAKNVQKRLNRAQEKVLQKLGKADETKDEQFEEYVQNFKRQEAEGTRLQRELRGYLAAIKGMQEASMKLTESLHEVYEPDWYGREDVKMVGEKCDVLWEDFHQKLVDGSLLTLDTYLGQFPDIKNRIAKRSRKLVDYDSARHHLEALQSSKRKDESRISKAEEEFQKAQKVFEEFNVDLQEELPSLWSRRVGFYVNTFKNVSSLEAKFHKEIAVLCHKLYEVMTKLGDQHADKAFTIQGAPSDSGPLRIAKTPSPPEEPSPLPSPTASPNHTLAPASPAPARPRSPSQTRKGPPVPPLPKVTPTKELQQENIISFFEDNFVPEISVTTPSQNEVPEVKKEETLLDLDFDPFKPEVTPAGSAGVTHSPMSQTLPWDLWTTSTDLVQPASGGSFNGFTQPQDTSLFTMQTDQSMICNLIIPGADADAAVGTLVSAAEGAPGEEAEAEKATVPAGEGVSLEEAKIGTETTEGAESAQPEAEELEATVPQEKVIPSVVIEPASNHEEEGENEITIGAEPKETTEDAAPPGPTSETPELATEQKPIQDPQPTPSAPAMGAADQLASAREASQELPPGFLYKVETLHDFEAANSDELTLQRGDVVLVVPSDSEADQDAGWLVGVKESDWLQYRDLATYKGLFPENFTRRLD
T2 sequence (P11021 19-654): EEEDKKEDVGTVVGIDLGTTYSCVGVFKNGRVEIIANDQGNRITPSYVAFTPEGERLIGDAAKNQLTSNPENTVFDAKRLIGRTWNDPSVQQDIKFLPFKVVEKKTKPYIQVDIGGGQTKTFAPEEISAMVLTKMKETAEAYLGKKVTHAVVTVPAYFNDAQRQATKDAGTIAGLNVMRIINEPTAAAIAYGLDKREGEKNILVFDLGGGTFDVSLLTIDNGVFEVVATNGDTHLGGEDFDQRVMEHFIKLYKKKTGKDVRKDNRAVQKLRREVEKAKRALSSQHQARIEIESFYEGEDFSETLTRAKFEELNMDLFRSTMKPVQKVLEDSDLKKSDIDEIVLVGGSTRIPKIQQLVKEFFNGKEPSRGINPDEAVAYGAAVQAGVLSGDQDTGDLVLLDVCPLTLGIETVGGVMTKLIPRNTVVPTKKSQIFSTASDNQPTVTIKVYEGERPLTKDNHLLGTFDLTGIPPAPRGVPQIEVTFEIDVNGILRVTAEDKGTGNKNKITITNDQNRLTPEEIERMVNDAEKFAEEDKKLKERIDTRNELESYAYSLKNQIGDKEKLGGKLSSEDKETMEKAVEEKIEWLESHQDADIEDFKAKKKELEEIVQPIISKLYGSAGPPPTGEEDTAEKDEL

| SMILES | adsorption in carcinoma cell line Caco-2 (Caco-2 cells [1]) | Adsorption Caco-2 (Caco-2 cells [1]) | adsorption in normal cells (HEK293) (HEK293 cells [2]) | Adsorption HEK293 (HEK293 cells [2]) | adsorption in carcinoma cell line LNCaP (LNCaP cells [3]) | Adsorption LNCaP (LNCaP cells [3]) | Permeability HEK293 (HEK293 cells [4]) | Permeability Caco-2 (Caco-2 cells [5]) | detection within the cytoplasm (Caco-2 cells [5]) | Permeability LNCaP (LNCaP cells [6]) | detection within the cytoplasm (LNCaP cells [6]) | binding to amphiphysin I (Seq. ID No. 7) (Amphiphysin I) | binding to BiP (Seq. ID No. 5) (BiP) | solubility [7] | binding to cytokeratin 8 (Seq. ID No. 10) (Cytokeratin 8) | binding to keratin 18 (Seq. ID No. 9) (Keratin 18) |
| --- | --- | --- | --- | --- | --- | --- | --- | --- | --- | --- | --- | --- | --- | --- | --- | --- |
| CCOP(=O)(O)Cc1ccc2cc(C)ccc2n1 [Compound 2] | adsorbed | ++ (++ = 21-40%) | not adsorbed | 0 (0 = 0-10%) | adsorbed | ++ (++ = 21-40%) | 0^b | + | detected within the cytoplasm | + | detected within the cytoplasm | found to bind; also recorded: bind specifically | found to bind; also recorded: bind specifically | > 10 mM |  |  |
| CCCCOP(=O)(O)Cc1ccc2cc(C)ccc2n1 [Compound 3] | adsorbed | ++ (++ = 21-40%) | not adsorbed | 0 (0 = 0-10%) | adsorbed | ++++ (++++ = >60%) | 0 | + | detected within the cytoplasm | + | detected within the cytoplasm | found to bind; also recorded: bind specifically | found to bind; also recorded: bind specifically | > 10 mM |  |  |
| CCCCOP(=O)(O)Cc1cc(CP(=O)(O)OCCCC)cc(CP(=O)(O)OCCCC)c1 [Compound 9, [3,5-Bis-(Butoxy-hydroxy-phosphorylmethyl)-benzyl]-phosphonic acid monobutyl ester] | adsorbed | ++ (++ = 21-40%) | not adsorbed | 0 (0 = 0-10%) | adsorbed | ++ (++ = 21-40%) | 0 | + | detected within the cytoplasm | + | detected within the cytoplasm |  |  | > 10 mM | found to bind; also recorded: bind specifically | found to bind; also recorded: bind specifically |
| CCCCOP(=O)(O)Cc1c(C)c(CP(=O)(O)OCCCC)c(C)c(CP(=O)(O)OCCCC)c1C [Compound 12, [3,5-Bis-(Butoxy-hydroxy-phosphorylmethyl)-2,4,6-trimethyl-benzyl]-phosphonic acid monobutyl ester] | adsorbed | ++++ (++++ = >60%) | not adsorbed | 0 (0 = 0-10%) | adsorbed | +++ (+++ = 41-60%) | 0 | + | detected within the cytoplasm | + | detected within the cytoplasm |  |  | > 10 mM | found to bind; also recorded: bind specifically | found to bind; also recorded: bind specifically |
